Measurements published in ChEMBL document CHEMBL1909542, “Synthesis and acrosin inhibitory activity of substituted 4-amino-N-(diaminomethylene) benzenesulfonamide derivatives” (Bioorg Med Chem Lett, 2011).

Biological target: Acrosin (Homo sapiens, UniProt P10323)
Assay: Inhibition of acrosin activity in human spermatozoa using N-alpha-benzoyl-DL-arginine para-nitroanilide-HCI as a substrate after 3 hrs by spectrophotometric analysis

Acrosin, sequence (P10323 20-42 limits assumed): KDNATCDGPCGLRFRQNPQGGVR
Acrosin, sequence (P10323 43-343 limits assumed): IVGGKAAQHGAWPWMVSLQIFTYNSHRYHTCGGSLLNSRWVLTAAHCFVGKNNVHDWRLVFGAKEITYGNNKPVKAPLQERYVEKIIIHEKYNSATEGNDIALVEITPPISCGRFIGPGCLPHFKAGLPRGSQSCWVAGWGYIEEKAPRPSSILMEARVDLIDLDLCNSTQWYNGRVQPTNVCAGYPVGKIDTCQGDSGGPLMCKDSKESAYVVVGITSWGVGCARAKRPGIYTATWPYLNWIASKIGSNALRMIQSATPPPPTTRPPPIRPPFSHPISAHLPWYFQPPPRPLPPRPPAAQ

IC50 [mM]	Compound
2.21	COc1ccc(C(=O)Nc2ccc(S(=O)(=O)N=C(N)N)cc2)cc1
2.06	Cc1ccc(C(=O)Nc2ccc(S(=O)(=O)N=C(N)N)cc2)cc1
6.3	NC(N)=NS(=O)(=O)c1ccc(NC(=O)c2ccccc2Cl)cc1
7	NC(N)=NS(=O)(=O)c1ccc(NC(=O)c2cccc(Cl)c2)cc1
5.63	NC(N)=NS(=O)(=O)c1ccc(NC(=O)c2ccc(Cl)cc2Cl)cc1
5.96	NC(N)=NS(=O)(=O)c1ccc(NC(=O)c2c(Cl)cccc2Cl)cc1
3.8	NC(N)=NS(=O)(=O)c1ccc(NC(=O)c2ccc(Cl)c(Cl)c2)cc1
7.63	NC(N)=NS(=O)(=O)c1ccc(NC(=O)c2ccccc2Br)cc1
7.11	NC(N)=NS(=O)(=O)c1ccc(NC(=O)c2ccc(F)cc2)cc1
7.18	NC(N)=NS(=O)(=O)c1ccc(NC(=O)c2c(F)cccc2F)cc1
3.84	NC(N)=NS(=O)(=O)c1ccc(NC(=O)c2ccc(CCl)cc2)cc1
2.45	Cc1cc(C)c(C(=O)Nc2ccc(S(=O)(=O)N=C(N)N)cc2)c(C)c1
7.05	NC(N)=NS(=O)(=O)c1ccc(NC(=O)c2cccc(C(F)(F)F)c2)cc1
2.5	NC(N)=NS(=O)(=O)c1ccc(NC(=O)c2cc([N+](=O)[O-])cc([N+](=O)[O-])c2)cc1
0.21	CCc1ccc(C(=O)Nc2ccc(S(=O)(=O)N=C(N)N)cc2)cc1
0.13	CCOc1ccc(C(=O)Nc2ccc(S(=O)(=O)N=C(N)N)cc2)cc1
9	CCC(=O)Nc1ccc(S(=O)(=O)N=C(N)N)cc1
9.58	CCCC(=O)Nc1ccc(S(=O)(=O)N=C(N)N)cc1

IC50 [mM]	Compound
1.58	CCCCC(=O)Nc1ccc(S(=O)(=O)N=C(N)N)cc1
7.41	NC(N)=NS(=O)(=O)c1ccc(NC(=O)CN2CCCCC2)cc1
9.9	CC1CCCCN1CC(=O)Nc1ccc(S(=O)(=O)N=C(N)N)cc1 (stereo unspecified)
4.98	CC1CCN(CC(=O)Nc2ccc(S(=O)(=O)N=C(N)N)cc2)CC1
9.3	COC(=O)C1CCN(CC(=O)Nc2ccc(S(=O)(=O)N=C(N)N)cc2)CC1
2.99	CCOC(=O)C1CCN(CC(=O)Nc2ccc(S(=O)(=O)N=C(N)N)cc2)CC1
3.31	CCCOC(=O)C1CCN(CC(=O)Nc2ccc(S(=O)(=O)N=C(N)N)cc2)CC1
2.35	CC(C)OC(=O)C1CCN(CC(=O)Nc2ccc(S(=O)(=O)N=C(N)N)cc2)CC1
9.5	CCCCOC(=O)C1CCN(CC(=O)Nc2ccc(S(=O)(=O)N=C(N)N)cc2)CC1
2.51	CC(C)CCOC(=O)C1CCN(CC(=O)Nc2ccc(S(=O)(=O)N=C(N)N)cc2)CC1
2.3	NC(N)=NS(=O)(=O)c1ccc(NC(=O)COc2ccccc2)cc1
9.3	Cc1ccccc1OCC(=O)Nc1ccc(S(=O)(=O)N=C(N)N)cc1
8.92	Cc1cccc(OCC(=O)Nc2ccc(S(=O)(=O)N=C(N)N)cc2)c1
8.98	Cc1ccc(OCC(=O)Nc2ccc(S(=O)(=O)N=C(N)N)cc2)cc1
9.35	NC(N)=NS(=O)(=O)c1ccc(NC(=O)COc2ccc(Cl)cc2)cc1
9.84	COc1ccc(OCC(=O)Nc2ccc(S(=O)(=O)N=C(N)N)cc2)cc1
4.2	NC(N)=NS(=O)(=O)c1ccc(NC(=O)COc2ccc([N+](=O)[O-])cc2)cc1
0.027	COC(=O)c1ccc(OC(=O)c2ccc(NC(=N)N)cc2)cc1.CS(=O)(=O)O
